Assay results from ChEMBL document CHEMBL1201862, “PubChem BioAssay data set” (2004).
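Cultured in 96-well plates, cells were exposed to test compound for 48 hours across five concentrations. GI50 is the concentration that inhibits growth by half.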 Active and inactive are the calls of the source. Cut-off read from the data, not from the text of the source: active = GI50 up to about 1.1 µM and inactive = higher.

Tests used:
Experiment in all cases: inhibition of tumour cell growth, NCI panel, 48 h
[1] = test system: SF-268
[2] = test system: NCI-H23
[3] = test system: M14
[4] = test system: MDA-MB-435
[5] = test system: HOP-62
[6] = test system: IGROV-1
[7] = test system: CAKI-1
[8] = test system: HCT-116
[9] = test system: SK-OV-3
[10] = test system: Malme-3M
[11] = test system: PC-3
[12] = test system: SNB-19
[13] = test system: SN12C
[14] = test system: KM12
[15] = test system: HCT-15
[16] = test system: K562
[17] = test system: MDA-N
[18] = test system: T47D
[19] = test system: MCF7
[20] = test system: HL-60

| SMILES | GI50 [1] | GI50 [2] | GI50 [3] | GI50 [4] | GI50 [5] | GI50 [6] | GI50 [7] | GI50 [8] | GI50 [9] | GI50 [10] | GI50 [11] | GI50 [12] | GI50 [13] | GI50 [14] | GI50 [15] | GI50 [16] | GI50 [17] | GI50 [18] | GI50 [19] | GI50 [20] |
| --- | --- | --- | --- | --- | --- | --- | --- | --- | --- | --- | --- | --- | --- | --- | --- | --- | --- | --- | --- | --- |
| CCOC(CN(C)C(=O)Nc1ccc(Cl)c(Cl)c1)OCC | > 10 µM (inactive) | > 10 µM (inactive) | > 10 µM (inactive) | > 10 µM (inactive) | > 10 µM (inactive) | > 10 µM (inactive) | > 10 µM (inactive) | > 10 µM (inactive) | > 10 µM (inactive) | > 10 µM (inactive) | > 10 µM (inactive) | > 10 µM (inactive) | > 10 µM (inactive) | > 10 µM (inactive) | > 10 µM | > 10 µM (inactive) | > 10 µM (inactive) | > 10 µM (inactive) | > 10 µM (inactive) | > 10 µM (inactive) |
| COc1ccc2c3c1O[C@H]1[C@@H](O)CC[C@@]4(O)[C@@H](C2)N(C)CC[C@]314 | > 100 µM (inactive) | > 100 µM (inactive) | > 100 µM (inactive) | > 100 µM (inactive) | > 100 µM (inactive) | > 100 µM (inactive) | > 100 µM (inactive) | > 100 µM (inactive) | > 100 µM (inactive) | > 100 µM (inactive) | > 100 µM (inactive) | > 100 µM (inactive) | > 100 µM (inactive) | > 100 µM (inactive) | > 100 µM | > 100 µM (inactive) | > 100 µM (inactive) | > 100 µM (inactive) | > 100 µM (inactive) | 2.93 µM (inactive) |
| CC(=O)N1N=C(c2cc(C)ccc2O)CC1c1cccc(Cl)c1 (stereo not given) | 8.55 µM (inactive) | 13.5 µM (inactive) | 15.1 µM (inactive) | 1.6 µM (inactive) | 22.3 µM (inactive) | 2.6 µM (inactive) | 27.3 µM (inactive) | 13.8 µM (inactive) | 9.1 µM (inactive) | 6.93 µM (inactive) | 3.35 µM (inactive) | 6.08 µM (inactive) | 17.5 µM (inactive) | 5.7 µM (inactive) | 1.95 µM | 4.05 µM (inactive) | 2.12 µM (inactive) | 23.1 µM (inactive) | 5.79 µM (inactive) | 8.53 µM (inactive) |
| CC(C)(CO)N1C(=O)c2ccccc2C1(O)c1ccc(Cl)cc1 (stereo not given) | > 100 µM (inactive) | > 100 µM (inactive) | > 100 µM (inactive) | > 100 µM (inactive) | > 100 µM (inactive) | > 100 µM (inactive) | > 100 µM (inactive) | > 100 µM (inactive) | > 100 µM (inactive) | > 100 µM (inactive) | 44.3 µM (inactive) | > 100 µM (inactive) | > 100 µM (inactive) | > 100 µM (inactive) | > 100 µM | > 100 µM (inactive) | > 100 µM (inactive) | 72.3 µM (inactive) | > 100 µM (inactive) | > 100 µM (inactive) |
| O=[N+]([O-])c1nccn1CCCNc1ccnc2cc(Cl)ccc12 | 7.48 µM (inactive) | 5.52 µM (inactive) | 4.5 µM (inactive) | 6.71 µM (inactive) | 25.5 µM (inactive) | 7.71 µM (inactive) | > 5.93 µM (inactive) | 3.47 µM (inactive) | 6.49 µM (inactive) | 29 µM (inactive) | 5.09 µM (inactive) | 4.06 µM (inactive) | 3.3 µM (inactive) | 5.37 µM (inactive) | 19.8 µM | 4.24 µM (inactive) | 7.29 µM (inactive) | 7.67 µM (inactive) | 50 µM (inactive) | 5 µM (inactive) |
| Nc1c2c(nc3cc(F)c(F)cc13)CCC2 | 58.5 µM (inactive) | 99.5 µM (inactive) | 61.5 µM (inactive) | 54 µM (inactive) | > 100 µM (inactive) | 45.7 µM (inactive) | 47.5 µM (inactive) | 38 µM (inactive) | 62.1 µM (inactive) | 41.7 µM (inactive) | 39.8 µM (inactive) | 48.6 µM (inactive) | 43.2 µM (inactive) | 50.2 µM (inactive) | 45.4 µM | 35.3 µM (inactive) | 49 µM (inactive) | 96.6 µM (inactive) | 33.3 µM (inactive) | 2.82 µM (inactive) |
| CCc1nc2c(c(N(C)C)c1C(=O)OC)CCc1ccccc1-2 | 47.1 µM (inactive) | 34.4 µM (inactive) | 24 µM (inactive) | 23.4 µM (inactive) | 24.8 µM (inactive) | 40.4 µM (inactive) | 51.1 µM (inactive) | 24.8 µM (inactive) | 13.8 µM (inactive) | 30.5 µM (inactive) | 18 µM (inactive) | 38.4 µM (inactive) | 28.8 µM (inactive) | 30.9 µM (inactive) | 32.5 µM | 20.2 µM (inactive) | 26.2 µM (inactive) | 11 µM (inactive) | 14.4 µM (inactive) | 2.86 µM (inactive) |
| N#CC(C(=O)O)C(c1c(Cl)cccc1Cl)C(C#N)C(=O)O (stereo not given) | > 100 µM (inactive) | > 100 µM (inactive) | > 100 µM (inactive) | > 100 µM (inactive) | > 100 µM (inactive) | > 100 µM (inactive) | > 100 µM (inactive) | > 100 µM (inactive) | > 100 µM (inactive) | > 100 µM (inactive) | > 100 µM (inactive) | > 100 µM (inactive) | > 100 µM (inactive) | > 100 µM (inactive) | > 100 µM | > 100 µM (inactive) | > 100 µM (inactive) | > 100 µM (inactive) | > 100 µM (inactive) | > 100 µM (inactive) |
| CCN(CC)CCCNc1ncc(C)c2c1c1ccc3c(O)cccc3c1n2C | 2.5 µM (inactive) | 1.8 µM (inactive) | 4.15 µM (inactive) | 8.07 µM (inactive) | 0.964 µM (active) | 1.96 µM (inactive) | 0.449 µM (active) | 1.05 µM (active) | 4.9 µM (inactive) | 14.7 µM (inactive) | 0.687 µM (active) | 1.07 µM (active) | 2.7 µM (inactive) | 1.52 µM (inactive) | 2.74 µM | 1.5 µM (inactive) | 1.65 µM (inactive) | 17.9 µM (inactive) | 0.191 µM (active) | 0.603 µM (active) |
| C[C@]12CCC3c4ccc(O)cc4CC[C@H]3C1CC(=O)NC2=O (stereo not given in full) | > 10 µM (inactive) | > 10 µM (inactive) | > 10 µM (inactive) | > 10 µM (inactive) | > 10 µM (inactive) | > 10 µM (inactive) | > 10 µM (inactive) | > 10 µM (inactive) | > 10 µM (inactive) | > 10 µM (inactive) | > 10 µM (inactive) | > 10 µM (inactive) | > 10 µM (inactive) | > 10 µM (inactive) | > 10 µM | > 10 µM (inactive) | > 10 µM (inactive) | > 10 µM (inactive) | > 10 µM (inactive) | > 10 µM (inactive) |
| CC1CNC(c2cccc(-c3nc(-c4cccc(C5=NC(C)CN5)c4)nc(N(C)C)n3)c2)=N1 (stereo not given) | 2.06 µM (inactive) | 2.14 µM (inactive) | 3.5 µM (inactive) | 1.19 µM (inactive) | 1.08 µM (active) | 3.28 µM (inactive) | 18.1 µM (inactive) | 0.491 µM (active) | 1.58 µM (inactive) | 3.87 µM (inactive) | 0.671 µM (active) | 0.752 µM (active) | 0.948 µM (active) | 1.67 µM (inactive) | 8.34 µM | 0.682 µM (active) | 1.52 µM (inactive) | 2.5 µM (inactive) | 0.78 µM (active) | 2.02 µM (inactive) |
| O=[N+]([O-])c1ccc(Sc2c3ccccc3nc3ccccc23)cn1 | 20.8 µM (inactive) | 15.9 µM (inactive) | 8.97 µM (inactive) | 16.7 µM (inactive) | > 42.6 µM (inactive) | 32.4 µM (inactive) | 5.61 µM (inactive) | 3.6 µM (inactive) | > 53.8 µM (inactive) | 3.24 µM (inactive) | 15.5 µM (inactive) | 24.5 µM (inactive) | 18.7 µM (inactive) | 33.1 µM (inactive) | 9.55 µM | 2.49 µM (inactive) | 14.3 µM (inactive) | 4.92 µM (inactive) | 4.48 µM (inactive) | 10.8 µM (inactive) |
| Cc1nc2ccccc2n1CCc1nc2ccccc2[nH]1 | > 100 µM (inactive) | > 100 µM (inactive) | > 100 µM (inactive) | > 100 µM (inactive) | > 100 µM (inactive) | > 100 µM (inactive) | > 100 µM (inactive) | > 100 µM (inactive) | > 100 µM (inactive) | > 100 µM (inactive) | > 100 µM (inactive) | > 100 µM (inactive) | > 100 µM (inactive) | > 100 µM (inactive) | > 100 µM | > 100 µM (inactive) | > 100 µM (inactive) | > 100 µM (inactive) | > 100 µM (inactive) | > 100 µM (inactive) |
| CCCCCCCCCCCCCCCCCc1nc(Cl)nc(Cl)c1Cl | > 100 µM (inactive) | > 100 µM (inactive) | > 100 µM (inactive) | > 100 µM (inactive) | > 100 µM (inactive) | > 100 µM (inactive) | > 100 µM (inactive) | > 100 µM (inactive) | > 100 µM (inactive) | > 100 µM (inactive) | 38.1 µM (inactive) | > 100 µM (inactive) | > 100 µM (inactive) | > 100 µM (inactive) | > 100 µM | > 100 µM (inactive) | > 100 µM (inactive) | > 100 µM (inactive) | > 100 µM (inactive) | > 100 µM (inactive) |
